Patent publication US5834481A, “Heterotricyclically substituted phenyl-cyclohexane-carboxylic acid derivatives” (Bayer Aktiengesellschaft, priority 1993, dated 1998)

These compounds were tested on smooth muscle cells obtained from the aortas of rats (assay: Inhibition of the proliferation of smooth muscle cells (3H-thymidine incorporation)). Settings: semi-maximum inhibition of the thymidine incorporation produced by 10% FCS; rat aortic smooth muscle cells.
Format: cell-based
Description: Investigation of the inhibition of the proliferation of smooth muscle cells by the compounds according to the invention
To determine the antiproliferative action of the compounds, smooth muscle cells are used which are obtained from the aortas of rats by the media explant technique [R. Ross, J. Cell, Biol. 50, 172, 1971]. The cells are inoculated into suitable culture dishes, as a rule 96-hole plates, and cultured at 37° C. in 5% CO2 for 2-3 days in medium 199 containing, 7.5% FCS and 7.5% NCS, 2mM L-glutamine and 15 mM HEPES, pH 7.4. The cells are then synchronized for 2-3 days by withdrawal of serum and then stimulated into growth using […] or other factors. Test compounds are simultaneously added. After 16-20 hours, 1 μCi ^3 H-thymidine is added and after a further 4 hours the incorporation of this substance into the TCA-precipitable DNA of the cells is determined. To determine the IC50 values, the active compound concentration is calculated which, on sequential dilution of the active compound, causes semi-maximum inhibition of the thymidine incorporation produced by 10% FCS.

Row | Structure (SMILES) | IC50
1 | Cc1cc(C)c2c3c(n(Cc4ccc(C5CCCCC5C(=O)N[C@H](CO)c5ccccc5)cc4)c2n1)CCCC3 (single isomer, unassigned) [Example 27] | 580 nM
2 | O=C(N[C@H](CO)c1ccccc1)C1CCCCC1c1ccc(Cn2c3ccccc3c3ccncc32)cc1 (single isomer, unassigned) [Example 30] | 0.1 nM
3 | O=C(N[C@H](CO)c1ccccc1)C1CCCCC1c1ccc(Cn2c3ccccc3c3cccnc32)cc1 (single isomer, unassigned) [Example 32] | 2 nM
4 | O=C(N[C@H](CO)c1ccccc1)C1CCCCC1c1ccc(Cn2c3c(c4cccnc42)CCCCC3)cc1 (single isomer, unassigned) [Example 50] | 0.9 nM
